Measurements: patent US20150328109A1, “DERMAL COMPOSITIONS CONTAINING UNNATURAL HYGROSCOPIC AMINO ACIDS” (MEDPHARM LIMITED, priority 2012, published 2015)

Tested on: RHE tissues
Experiment: RHE irritation assessment Method 1: SkinEthic Skin Irritation Test-42 bis assay (MTT), plus 24 h contact time
Format: cell-based, human
Conditions: 42 min and 24 h exposure; 5 and 1% w/v α-H-G, 10 and 1% w/v L-h-S in water
From the text: The purpose of this experiment was to investigate the potential of alpha-hydroxyglycine (α-H-G) and L-homoserine (L-h-S) to cause skin irritation. The method was based on the validated SOP for the “The SkinEthic Skin Irritation Test-42 bis assay” in accordance to OECD guideline Test No. 439: In Vitro Skin Irritation. The protocol is provided in Section 1.2. Further details on the method can be found in the SkinEthic™ RHE SOP, Version 2.1 (July 2009), SkinEthic skin irritation test-42 bis test method for the prediction of acute skin irritation of chemicals: 42 minutes application+42 hours post-incubation. Available at: [http://ecvam.jrc.ec.europa.eu].
In addition, a further experiment was performed where the contact time of the test solution with the tissue was increased to 24 h. Following which point an MTT assay was used to determine the tissue viability and the test solutions potential to cause irritation.
The following steps were completed on receipt of the tissues: • (i) Wells of 6-well plates were filled with 1 mL growth culture medium. • (ii) Tissue were removed from their packaging, cleaned to remove the transport agarose and inspected for signs of damage; damaged tissues were discarded. • (iii) The tissue were transferred into the growth culture medium then incubated at 37° C., 5% CO2 until application of the test solution.
1.2.1.1.6 Applications of 5 and 1% w/v α-H-G and 10 and 1% w/v L-h-S and Controls • (i) 16 μL±0.5 μL of the test solutions (5% w/v α-hydroxyglycine (α-H-G) in water, 1% w/v α-hydroxyglycine (α-H-G) in water, 10% w/v L-homoserine (L-h-S) in water, 1% w/v L-homoserine (L-h-S) in water) and negative (PBS) and positive (5% SDS) controls were dispensed onto the top of the epidermal tissue, using positive displacement pipette. […]

## N[C@@H](CCO)C(=O)O [L-homoserine]
  skin irritation potential (viability below 50% of negative control = irritant): non-irritants
